# Patent US6069132A, “Phosphazole compounds” (priority 1997, dated 2000)
# Experiments:
# HCMV = conditions: cited from earlier work
# [1] = Cytotoxicity on static MRC-5 cells; type: cell-based; conditions: human, Table 4, 50% cell death (static cells), read-out: TC50 Static MRC-5
# Experimental: (§1) Cell Culture. Vero (African Green Monkey kidney cells) and MRC-5 (diploid Human Embryonic Lung fibroblasts) cells were obtained from the American Type Culture Collection (ATCC) and were grown in minimal essential medium (MEM) with Earl's salts and glutamine (GIBCO BRL, Life Technologies, Inc.) with 10% heat inactivated fetal bovine serum (GIBCO BRL) and penicillin (100 μg/mL)/streptomycin (100 μg/mL).
# (§2) Cytotoxicity Analysis. The cytotoxicity of the compound was assayed using few the CellTiter 96™ Aqueous Non-Radioactive Cell Proliferation (MTS) Assay (Promega). Briefly, viable cell number was determined by trypan blue staining and cells (MRC-5 and Vero) were resuspended in minimal essential medium (MEM) supplemented with 10% FBS (GIBCO). Eighty microliters of cell suspension (1.7×10^4 cells/well) was dispensed onto a 96-well microtiter plates. At this time 20 μL of drug (or control) was added to appropriate wells. Each concentration was assayed in quadruplicate. The plates were incubated at 37° C. in a humidified 5% CO2 atmosphere for 4 days and MTS assay was performed according to the manufacturer's instructions. The average absorbence of the sample was graphed for each concentration and the data obtained was used to calculate TC50 (the concentration necessary to give one-half maximum growth) for each compound.
# HSV-1 = HSV-1 CPE assay in Vero cells; type: cell-based; conditions: Human alphaherpesvirus 1, Vero
# [2] = Cytotoxicity on static Vero cells; type: cell-based; conditions: african green monkey, Table 4, 50% cell death (static cells), read-out: TC50 Static Vero
# Experimental: as §1, §2
# [3] = Cytotoxicity on growing Vero cells (MTS); type: cell-based; conditions: african green monkey, Table 4, 50% inhibition of logphase growing cells, read-out: TC50 Growing Vero
# Experimental: as §1, §2
# [4] = Cytotoxicity on growing MRC-5 cells (MTS); type: cell-based, human; conditions: human, mrc-5 cells; Table 4; 50% inhibition of logphase growing cells; read-out: TC50 Growing MRC-5
# Experimental: as §1, §2
# HSV-2 = HSV-2 CPE assay in Vero cells; type: cell-based; conditions: Human alphaherpesvirus 2, Vero
# IL-1β = test: Inhibition of IL-1β production in LPS-stimulated THP-1 cells (ELISA); type: cell-based, human; conditions: for IC50: Homo sapiens, Table 2, LPS-stimulated THP-1, 6 h post-stimulation, read-out: IC50 IL-1β in THP-1 cells
# Experimental: (§3) Cell line. THP-1 cells (human monocyte) were maintained in RPMI 1640 medium containing 25 mM Hepes buffer, 2 mM L-glutamine, 50 units of penicillin per mL, 50 μg of streptomycin sulfate per mL, and 10% heat-inactivated fetal bovine serum (FBS) in a humidified incubator containing 5% CO2. The cells were split 1:4 weekly as recommended by the American Type Culture Collection (ATCC).
# TNFα assay. Varying concentrations of the test compound or control compound were added to THP-1 cells plated at a density of 1×10^6cells/mL in 600 μL of 10% RPMI in a 48 well plate. After one hour the cells were stimulated with 0.5 μg of lipopolysaccharide (LPS; Sigma, lot number 43H40491) per mL. Six hours post-stimulation supernatants were collected and assayed for TNFα or IL-1β production using a commercially available cytokine detection ELISA (Enzyme Linked Immunosorbent Assay) kit according to the suppliers instructions. A suitable assay kit may be obtained from Biosource, or R and D systems. A novel xanthine analog, HWA-3138, having the structure (as shown below) was used as the control compound (30) in this study to monitor the response of the THP-l cells. Xanthine analogs are known inhibitors of TNFα but not IL-1β. In the following experiments compound HWA-3138 was used as a positive control. [drawing 58] […]
# THP-1 cells were cultured and IL-1β inhibition assays were conducted as described for TNFα in Example 46, except a commercially available IL-1β assay kit, obtained from R and D Systems, Minneapolis, Minn., was used instead of the TNFα kit.
# With reference now to FIG. 8, for each concentration of T70241 tested, the membrane bound IL-1β was separated from the IL-1β found free in the culture medium at 6 hours post-LPS stimulation as described in Example 46 for TNFα, and the percent inhibition of each fraction was graphed.
# TNFα [5] = test: Inhibition of TNFα production in LPS-stimulated THP-1 cells (ELISA); type: cell-based, human; conditions: for IC50: Homo sapiens, Table 2, LPS-stimulated THP-1, 6 h post-stimulation
# Experimental: as §3
# TNFα assay. Varying concentrations of the test compound or control compound were added to THP-1 cells plated at a density of 1×10^6cells/mL in 600 μL of 10% RPMI in a 48 well plate. After one hour the cells were stimulated with 0.5 μg of lipopolysaccharide (LPS; Sigma, lot number 43H40491) per mL. Six hours post-stimulation supernatants were collected and assayed for TNFα or IL-1β production using a commercially available cytokine detection ELISA (Enzyme Linked Immunosorbent Assay) kit according to the suppliers instructions. A suitable assay kit may be obtained from Biosource, or R and D systems. A novel xanthine analog, HWA-3138, having the structure (as shown below) was used as the control compound (30) in this study to monitor the response of the THP-l cells. Xanthine analogs are known inhibitors of TNFα but not IL-1β. In the following experiments compound HWA-3138 was used as a positive control. [drawing 58]
# Time of Addition. Varying concentrations of test or control compounds were added to THP-1 cells (1×10^6 cells/mL) at different time points post-stimulation using 0.5 μg of LPS (Sigma, lot number 43H40491) per mL in 300 μL of 10% RPMI in a 48 well plate. Six hours post-stimulationsupernatants were collected and assayed for TNFα or IL-1β production using a Biosource cytokine detection ELISA (Enzyme Linked Immunosorbent Assay) kit according to the supplier's instructions.
# The membrane bound TNFα was separated from the free TNFα in the culture medium at 6 hours post-LPS stimulation as follows: The corresponding cells were centrifuged at 3500 rpm (~1,000×g) for 6 min. The supernatants were removed and the cell pellets were then resuspended in 200 μL of 0.25 mM Tris-HCl (pH 7.4). The cell associated TNFα was prepared by freezing the cell suspension in dry ice/ethanol and thawing at 37° C. three times with Vortexing in-between freeze-thaw cycles. Each cycle was 4-5 min apart.
# To determine the long-term effects of phosphazole compound T70241 on TNFα production after a single treatment, THP-1 cells were pre-incubated with T70241, washed and resuspended in drug free medium. The xanthine analog HWA-3138 was used as a control.
# TNFα [6] = conditions: by inhibition of PDE activity; cited from earlier work
# [7] = test system: adenosine deaminase (ADA); test: Enzymatic hydrolysis by adenosine deaminase; type: in vitro ADME, calf; conditions: 25° C.
# Experimental: Adenosine deaminase (ADA, adenosine aminohydrolase, EC 3.5.4.4, SIGMA) from calf intestinal mucosa was prepared to give a stock of 1 mg/mL (250-280 units/mL) in pH 7.4, 0.01 M phosphate buffer. The relative rates of hydrolysis of selected compounds by ADA and characterization of the products was carried as follows. […] Fifty-microliter aliquots were taken at time intervals and hydrolysis was quenched by mixing with 0.45 mL of distilled water and then the diluted sample was heated at 95° C. for 6 min to ensure enxyme deactivation. The decrease in substrate concentration and the formation of the products was followed over time by UV-spectroscopic analysis. Adenosine was used as a control in this experiment and one unit is defined as the amount of ADA that hydrolyzes 1.0 μmol of adenosine/min at 25° C.
# [8] = Cytotoxicity on growing THP-1 cells (MTS assay); type: cell-based, human; conditions: human, thp-1 cells; Table 2; drug dose required to inhibit logphase growing cells by 50%; read-out: TC50 Growing THP-1
# Experimental: Cytotoxicity Analysis. The cytotoxicity of the compounds were assayed using the CellTiter 96™ Aqueous Non-Radioactive Cell Proliferation (MTS) Assay kit obtained from Promega (Madison, Wis.) following the instructions provided by the supplier. The viable cell number was determined by trypan blue staining and cells (THP-1) were resuspended in PRMI supplemented with 10% FBS (GIBCO). Eighty microliters of cell suspension (1.7×10^4cells/well) was dispensed onto a 96-well microtiter plates. At this time 20 μL of drug (or control) was added to appropriate wells. Each concentration was assayed in quadruplicate. The plates were incubated at 37° C. in a humidified 5% CO2 atmosphere for 4 days and MTS assay […] for each concentration and the data obtained was used to calculate TC50 (the concentration of the compound necessary to inhibit the cell growth by 50%) for each compound.
# HCMV (Town strain) = test: HCMV plaque reduction (CPE) assay in MRC-5 cells; type: cell-based, human cytomegalovirus; conditions: Human betaherpesvirus 5, MRC5; Table 4; read-out: IC50 HCMV
# Experimental: The adenine analog phosphazole (compound T70241) was assayed for antiviral activity using a HCMV plaque reduction assay, in accordance with known methods such as that described in U.S. Pat. No. 5,446,045.
# as §1
# CMV Cytopathic Effect (CPE) Assay. Assays were performed essentially as described by Lewis et al. (111), which report is incorporated herein by reference. MRC-5 cells (100,000 cells/well) were seeded in 24-well plates overnight. Medium was then removed and wells were rinsed once with 250 μL of 2% FCS-MEM before adding 40-50 pfu of HCMV (Town strain) to each well. After 2 hours of virus adsorption, the medium was removed and the cells were rinsed once with 2% FCS-MEM. Varying concentrations of the phosphazole compound in the culture medium (1 mL) was then added to appropriate wells and plates were incubated for 5-6 days at 37° C. in a humidified 5% CO2 atmosphere. Each concentration was tested in duplicate wells.
# The extent of the plaque reduction was quantitated by removing the media and adding 200 μL of 0.1% crystal violet in 20% methanol to all wells. The crystal violet was then removed after 10 min staining at room temperature by rinsing in the sink with tap water and the plates dried overnight. The plaques were then counted using a Nikon inverted microscope.
smiles,measurement,setting,value
NC(=O)c1cn([C@H]2C[C@H](O)[C@@H](CO)O2)c2ncnc(N)c12 [2'-deoxysangivamycin],activity against HCMV,HCMV,selective activity against HCMV
"Nc1nc2c(ncn2COCCO)c(=O)[nH]1 [ACV, acyclovir, reference compound]",CC50 at 96 h,[1],> 250 µg/mL
same,IC50,HSV-1; Table 4,0.1 µg/mL
same,CC50 at 96 h,[2],> 250 µg/mL
same,CC50 at 96 h,[3],> 250 µg/mL
same,CC50 at 96 h,[4],> 250 µg/mL
same,IC50,HSV-2; Table 4,0.74 µg/mL
"Nc1ncnc2nc[nH]c12 [Adenine, reference compound]",IC50,IL-1β,> 250 µg/mL
same,IC50,TNFα [5],> 250 µg/mL
"Nc1ncnc2c1ncn2[C@@H]1O[C@H](CO)[C@@H](O)[C@H]1O [Adenosine, reference compound]",IC50,IL-1β,> 250 µg/mL
same,IC50,TNFα [5],100 µg/mL
same,suppression of TNFα production,TNFα [6],suppression of TNFα production
same,rate of hydrolysis by ADA,[7],1.0 pmole/unit per min
"Cn1c(=O)n(CCCCC(C)(C)O)c(=O)c2nc[nH]c21 [HWA-3138, reference compound]",inhibition of IL-1β production,"IL-1β; 10-250 μg/mL, THP-1 (FIG. 6)",does not inhibit IL-1β production
same,IC50,IL-1β,> 500 µg/mL
same,inhibition of TNFα production,"TNFα [5]; 10 and 100 μg/mL, THP-1, 6 h post-stimulation (FIG. 2)",no inhibition
same,IC50,TNFα [5],255 µg/mL
same,CC50 at 96 h,[8],316 µg/mL
"O=c1[nH]cnc2pc[nH]c12 (stereo not drawn) [T70256, 1,3-azaphospholo[4,5-d]pyrimidin-7(1H,6H)-one]",IC50,IL-1β,170 µg/mL
same,IC50,TNFα [5],168 µg/mL
"Nc1ncnc2pcn([C@@H]3O[C@H](CO)[C@@H](O)[C@H]3O)c12 (stereo partly drawn) [T70264, 7-Amino-1-(β-D-ribofuranosyl)-1,3-azaphospholo-[4,5-d]pyrimidine]",IC50,IL-1β,> 100 µg/mL
same,IC50,TNFα [5],126 µg/mL
same,CC50 at 96 h,[8],118 µg/mL
"Nc1ncnc2pcn([C@H]3C[C@H](O)[C@@H](CO)O3)c12 (stereo partly drawn) [T70265, 7-Amino-1-(2-deoxy-β-D-eythro-pentofuranosyl)-1,3-azaphospholo[4,5-d]pyrimidine]",IC50,IL-1β,> 100 µg/mL
same,IC50,TNFα [5],26.2 µg/mL
same,CC50 at 96 h,[8],105 µg/mL
"Nc1ncnc2pcn(COCCO)c12 (stereo not drawn) [T70268, 7-Amino-1-[(2-hydroxyethoxy)methyl]-1,3-azaphospholo-[4,5-d]pyrimidine]",IC50,IL-1β,> 100 µg/mL
same,IC50,TNFα [5],> 100 µg/mL
same,CC50 at 96 h,[1],> 50 µg/mL
same,IC50,HSV-1; Table 4,> 50 µg/mL
same,CC50 at 96 h,[2],> 50 µg/mL
same,CC50 at 96 h,[3],> 50 µg/mL
same,CC50 at 96 h,[4],> 50 µg/mL
same,IC50,HSV-2; Table 4,> 50 µg/mL
same,IC50,HCMV (Town strain),> 50 µg/mL
"Nc1ncnc2pcn(COC(CO)CO)c12 (stereo not drawn) [T70269, 7-Amino-1-[(1,3-dihydroxy-2-propoxy)methyl]-1,3-azaphospholo [4,5-d]pyrimidine]",IC50,IL-1β,> 100 µg/mL
same,IC50,TNFα [5],> 100 µg/mL
same,CC50 at 96 h,[1],> 50 µg/mL
same,IC50,HSV-1,2.75 µg/mL
same,CC50 at 96 h,[2],> 50 µg/mL
same,CC50 at 96 h,[3],41.4 µg/mL
same,CC50 at 96 h,[4],> 50 µg/mL
same,IC50,HSV-2,27.8 µg/mL
same,IC50,HCMV (Town strain),26.1 µg/mL
"O=c1[nH]c(=O)c2[nH]cpc2[nH]1 (stereo not drawn) [T70270, 1,3-Azaphospholo[4,5-d]pyrimidine-5,7(1H, 4H,6H) -dione]",IC50,IL-1β,> 250 µg/mL
same,IC50,TNFα [5],239 µg/mL
"Cn1c(=O)c2c(pcn2C)n(C)c1=O (stereo not drawn) [T70271, 1,4,6-Trimethyl-1,3-azaphospholo[4,5-d]pyrimidine-5,7-dione]",IC50,IL-1β,> 250 µg/mL
same,IC50,TNFα [5],37.3 µg/mL
N#Cc1cn([C@@H]2O[C@H](CO)[C@@H](O)[C@@H]2O)c2ncnc(N)c12 [ara-toyocamycin],activity against HCMV,HCMV,selective activity against HCMV
Nc1ncnc2c1ccn2[C@@H]1O[C@H](CO)[C@@H](O)[C@@H]1F [arafluoro-tubercidin],activity against HCMV,HCMV,selective activity against HCMV
CC(=O)CCCCn1c(=O)c2c(ncn2C)n(C)c1=O [pentoxifylline],suppression of TNFα production,TNFα [6],suppression of TNFα production
